Measured values reported in patent US10508104B2, “6-hydroxy-5-(phenyl/heteroarylsulfonyl)pyrimidin-4(1H)-one as APJ agonists” (Bristol-Myers Squibb Company, priority 2016, dated 2019).
pEC50: −log10 of the molar value.

What follows are compounds tested against human APJ receptor (Homo sapiens (Human), UniProt P35414) (assay: Intracellular cAMP accumulation assay (APJ hcAMP, HTRF)). Conditions: HEK293 cells stably expressing human APJ receptor; inhibition of forskolin-mediated cAMP production; read-out: Human APJ cAMP EC50 Potency range.
Chain of human APJ receptor (P35414 whole entry): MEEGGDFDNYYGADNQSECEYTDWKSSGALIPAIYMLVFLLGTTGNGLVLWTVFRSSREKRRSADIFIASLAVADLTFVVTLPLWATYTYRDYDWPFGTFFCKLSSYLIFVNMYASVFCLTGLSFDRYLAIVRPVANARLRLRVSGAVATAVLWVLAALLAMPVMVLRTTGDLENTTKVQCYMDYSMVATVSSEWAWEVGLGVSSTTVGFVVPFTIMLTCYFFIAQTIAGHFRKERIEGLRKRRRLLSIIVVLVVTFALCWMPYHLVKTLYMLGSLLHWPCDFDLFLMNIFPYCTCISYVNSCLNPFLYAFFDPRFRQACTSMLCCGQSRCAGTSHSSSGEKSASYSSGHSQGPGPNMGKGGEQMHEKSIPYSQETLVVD
Format: cell-based
In short: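 HEK293 cells stably expressing human APJ, 5,000 per well, incubated 30 min at rt with compound, […] and 2 μM forskolin. cAMP measured by HTRF against a cAMP standard curve as inhibition of forskolin-driven production. EC50 from variable-slope sigmoidal fit.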

| SMILES | pEC50 |
| --- | --- |
| CCCCc1nc(=O)c(S(=O)(=O)c2ccc(-c3cccc(C(=O)NC4CC4)c3F)cc2)c(O)n1[C@@H](CC)c1cccc(C#N)c1 [Example 534, 4′-({2-butyl-1-[(1S)-1-(3-cyanophenyl)propyl]-6-hydroxy-4-oxo-1,4-dihydropyrimidin-5-yl}sulfonyl)-N-cyclopropyl-2-fluoro-[1,1′-biphenyl]-3-carboxamide] | 8.00 to 11.00 |
| CCCCc1nc(=O)c(S(=O)(=O)c2ccc(-c3ccnc(F)c3C)cc2)c(O)n1[C@H]1CCc2c(C#N)cccc21 [Example 537, (1S)-1-{2-butyl-5-[4-(2-fluoro-3-methylpyridin-4-yl)benzenesulfonyl]-6-hydroxy-4-oxo-1,4-dihydropyrimidin-1-yl}-2,3-dihydro-1H-indene-4-carbonitrile] | 8.00 to 11.00 |
| CCCCc1nc(=O)c(S(=O)(=O)c2ccc(-c3cccc(F)c3C(N)=O)cc2)c(O)n1[C@@H](CC)c1cccc(C#N)c1 [Example 538, 4′-({2-butyl-1-[(1S)-1-(3-cyanophenyl)propyl]-6-hydroxy-4-oxo-1,4-dihydropyrimidin-5-yl}sulfonyl)-3-fluoro-[1,1′-biphenyl]-2-carboxamide] | 8.00 to 11.00 |
| CCCCc1nc(=O)c(S(=O)(=O)c2ccc(-c3cccnc3C)cc2)c(O)n1[C@H]1CCc2c(C#N)cccc21 [Example 539, (1S)-1-{2-butyl-6-hydroxy-5-[4-(2-methylpyridin-3-yl)benzenesulfonyl]-4-oxo-1,4-dihydropyrimidin-1-yl}-2,3-dihydro-1H-indene-4-carbonitrile] | 8.00 to 11.00 |
| CCCCc1nc(=O)c(S(=O)(=O)c2ccc(-c3ccc(F)nc3C)cc2)c(O)n1[C@H]1CCc2c(C#N)cccc21 [Example 540, (1S)-1-{2-butyl-5-[4-(6-fluoro-2-methylpyridin-3-yl)benzenesulfonyl]-6-hydroxy-4-oxo-1,4-dihydropyrimidin-1-yl}-2,3-dihydro-1H-indene-4-carbonitrile] | 8.00 to 11.00 |
| CCCCc1nc(=O)c(S(=O)(=O)c2ccc(-c3ccncc3C)cc2)c(O)n1[C@H]1CCc2c(C#N)cccc21 [Example 541, (1S)-1-{2-butyl-6-hydroxy-5-[4-(3-methylpyridin-4-yl)benzenesulfonyl]-4-oxo-1,4-dihydropyrimidin-1-yl}-2,3-dihydro-1H-indene-4-carbonitrile] | 8.00 to 11.00 |
| CCCCc1nc(=O)c(S(=O)(=O)c2ccc(-c3ccnc(F)c3C)cc2)c(O)n1[C@@H]1CCc2ccc(C#N)cc21 [Example 542, (3R)-3-{2-butyl-5-[4-(2-fluoro-3-methylpyridin-4-yl)benzenesulfonyl]-6-hydroxy-4-oxo-1,4-dihydropyrimidin-1-yl}-2,3-dihydro-1H-indene-5-carbonitrile] | 7.00 to 8.00 |
| CCCCc1nc(=O)c(S(=O)(=O)c2ccc(-c3ccncc3C)cc2)c(O)n1[C@@H]1CCc2ccc(C#N)cc21 [Example 544, (3R)-3-{2-butyl-6-hydroxy-5-[4-(3-methylpyridin-4-yl)benzenesulfonyl]-4-oxo-1,4-dihydropyrimidin-1-yl}-2,3-dihydro-1H-indene-5-carbonitrile] | 7.00 to 8.00 |
| CCCCc1nc(=O)c(S(=O)(=O)c2ccc(-c3ccc(C(=O)NC)cc3F)cc2)c(O)n1[C@@H](CC)c1cccc(C#N)c1 [Example 545, 4′-({2-butyl-1-[(1S)-1-(3-cyanophenyl)propyl]-6-hydroxy-4-oxo-1,4-dihydropyrimidin-5-yl}sulfonyl)-2-fluoro-N-methyl-[1,1′-biphenyl]-4-carboxamide] | 8.00 to 11.00 |
| CCCCc1nc(=O)c(S(=O)(=O)c2ccc(-c3ccncc3C)cc2)c(O)n1[C@@H](CC)c1cccc(C#N)n1 [Example 550, 6-[(1S)-1-{2-butyl-6-hydroxy-5-[4-(3-methylpyridin-4-yl)benzenesulfonyl]-4-oxo-1,4-dihydropyrimidin-1-yl}propyl]pyridine-2-carbonitrile] | 8.00 to 11.00 |
| CCCCc1nc(=O)c(S(=O)(=O)[C@H]2CC[C@H](O)CC2)c(O)n1-c1c(CC)cccc1CC [Example 553, 2-butyl-1-(2,6-diethylphenyl)-6-hydroxy-5-{[(1r,4r)-4-hydroxycyclohexyl]sulfonyl}-1,4-dihydropyrimidin-4-one] | 8.00 to 11.00 |
| CCCCc1nc(=O)c(S(=O)(=O)[C@H]2CC[C@@H](O)CC2)c(O)n1-c1c(CC)cccc1CC [Example 554, 2-butyl-1-(2,6-diethylphenyl)-6-hydroxy-5-{[(1s,4s)-4-hydroxycyclohexyl]sulfonyl}-1,4-dihydropyrimidin-4-one] | 8.00 to 11.00 |
| CCCCc1nc(=O)c(S(=O)(=O)[C@H]2CC[C@@H](O)CC2)c(O)n1-c1c(OC)cccc1OC [Example 555, 2-butyl-1-(2,6-dimethoxyphenyl)-6-hydroxy-5-{[(1s,4s)-4-hydroxycyclohexyl]sulfonyl}-1,4-dihydropyrimidin-4-one] | 8.00 to 11.00 |

Second part, the compound after the results:

| pEC50 | SMILES |
| --- | --- |
| 8.00 to 11.00 | CCCCc1nc(=O)c(S(=O)(=O)c2ccc(-c3cccc4c3CNC4=O)cc2)c(O)n1[C@@H](CC)c1cccc(C#N)c1 [Example 535, 3-[(1S)-1-{2-butyl-6-hydroxy-4-oxo-5-[4-(1-oxo-2,3-dihydro-1H-isoindol-4-yl)benzenesulfonyl]-1,4-dihydropyrimidin-1-yl}propyl]benzonitrile] |
| 8.00 to 11.00 | CCCCc1nc(=O)c(S(=O)(=O)c2ccc(-c3cc(F)ncc3C)cc2)c(O)n1[C@@H](CC)c1cccc(C#N)c1 [Example 536, 3-[(1S)-1-{2-butyl-5-[4-(2-fluoro-5-methylpyridin-4-yl)benzenesulfonyl]-6-hydroxy-4-oxo-1,4-dihydropyrimidin-1-yl}propyl]benzonitriIe] |
| 7.00 to 8.00 | CCCCc1nc(=O)c(S(=O)(=O)c2ccc(-c3cccc(C(=O)NC)c3)cc2)c(O)n1[C@@H]1CCc2ccc(C#N)cc21 [Example 543, 4′-({2-butyl-1-[(1R)-6-cyano-2,3-dihydro-1H-inden-1-yl]-6-hydroxy-4-oxo-1,4-dihydropyrimidin-5-yl}sulfonyl)-N-methyl-[1,1′-biphenyl]-3-carboxamide] |
| 6.52 to 7.00 | CCCCc1nc(=O)c(S(=O)(=O)c2ccc(-c3ccc(F)nc3C)cc2)c(O)n1[C@@H]1CCc2ccc(C#N)cc21 [Example 546, (3R)-3-{2-butyl-5-[4-(6-fluoro-2-methylpyridin-3-yl)benzenesulfonyl]-6-hydroxy-4-oxo-1,4-dihydropyrimidin-1-yl}-2,3-dihydro-1H-indene-5-carbonitrile] |
| 7.00 to 8.00 | CCCCc1nc(=O)c(S(=O)(=O)c2ccc(-c3cccnc3C)cc2)c(O)n1[C@@H]1CCc2ccc(C#N)cc21 [Example 547, (3R)-3-{2-butyl-6-hydroxy-5-[4-(2-methylpyridin-3-yl)benzenesulfonyl]-4-oxo-1,4-dihydropyrimidin-1-yl}-2,3-dihydro-1H-indene-5-carbonitrile] |
| 7.00 to 8.00 | CCCCc1nc(=O)c(S(=O)(=O)c2ccc(-c3ccccc3C(=O)NC)cc2)c(O)n1[C@@H]1CCc2ccc(C#N)cc21 [Example 548, 4′-({2-butyl-1-[(1R)-6-cyano-2,3-dihydro-1H-inden-1-yl]-6-hydroxy-4-oxo-1,4-dihydropyrimidin-5-y1}sulfonyl)-N-methyl-[1,1′-biphenyl]-2-carboxamide] |
| 8.00 to 11.00 | CCCCc1nc(=O)c(S(=O)(=O)c2ccc(-c3ccnc(F)c3C)cc2)c(O)n1[C@@H](CC)c1cccc(C#N)n1 [Example 549, 6-[(1S)-1-{2-butyl-5-[4-(2-fluoro-3-methylpyridin-4-yI)benzenesulfonyl]-6-hydroxy-4-oxo-1,4-dihydropyrimidin-1-yl}propyl]pyridine-2-carbonitrile] |
| 8.00 to 11.00 | CCCCc1nc(=O)c(S(=O)(=O)c2ccc(-c3ccccc3C(=O)NC)cc2)c(O)n1[C@@H](CC)c1cccc(C#N)n1 [Example 551, 4′-({2-butyl-1-[(1S)-1-(6-cyanopyridin-2-yl)propyl]-6-hydroxy-4-oxo-1,4-dihydropyrimidin-5-yl}sulfonyl)-N-methyl-[1,1′-biphenyl]-2-carboxamide] |
| 8.00 to 11.00 | CCCCc1nc(=O)c(S(=O)(=O)c2ccc(-c3cccc(C(=O)NC)c3)cc2)c(O)n1[C@@H](CC)c1cccc(C#N)n1 [Example 552, 4′-({2-butyl-1-[(1S)-1-(6-cyanopyridin-2-yl)propyl]-6-hydroxy-4-oxo-1,4-dihydropyrimidin-5-yl}sulfonyl)-N-methyl-[1,1′-biphenyl]-3-carboxamide] |
| 8.00 to 11.00 | CCCCc1nc(=O)c(S(=O)(=O)[C@H]2CC[C@H](O)CC2)c(O)n1-c1c(OC)cccc1OC [Example 556, 2-butyl-1-(2,6-dimethoxyphenyl)-6-hydroxy-5-{[(1r,4r)-4-hydroxycyclohexyl]sulfonyl}-1,4-dihydropyrimidin-4-one] |
